Tests used:
Type in all cases: physicochemical
[1] = fluorescence emission spectroscopy of marker in xylene solution; conditions: for Em. max.: xylene solution having 0.5 ppm marker material, excitation 543 nm for (II), 551 nm for (III), experimental; for Em. max. (estimated): not experimental, estimated based on the values of formulas (II) and (III)
From the text: (§1) Chemical structures of other examples of anthrapyridone marker compounds derived based on the general formula (I) may be seen below. […] Table 1 identifies side groups of each anthrapyridone compound based on the general formula (I) and their absorption and emission characteristics. In Table 1, only the absorbance maximum and emission maximum values for the anthrapyridone compound markers with formula (II) and formula (III) are experimental. In the spectroscopic measurements, each test sample includes a xylene solution having 0.5 ppm marker material. For emission measurements 543 and 551 nm excitation wavelength are used, respectively. The absorbance maximum and emission maximum values of the formulas (IV)-(X) are not experimental values. These values are estimated values based on the values of the formulas (II) and (III).

[2] = absorbance spectroscopy of marker in xylene solution; conditions: for Ab. max.: xylene solution having 0.5 ppm marker material, experimental; for Ab. max. (estimated): not experimental, estimated based on the values of formulas (II) and (III)
From the text: as §1

[3] = absorbance spectrum (UV-Vis) of marker in diesel fuel, FIG. 2A; conditions: diesel solution, about 0.5 ppm marker material
From the text: FIG. 2A is a graph of an absorbance spectrum 10A of the marker material (the anthrapyridone compound of formula (III)) in diesel fuel. The absorbance spectrum 10A includes two absorbance maximums 11A and 11B at about 520 nm and about 550 nm wavelength values of the visible radiation range, respectively. A diesel solution having about 0.5 ppm marker material concentration may be used as a test sample for this spectral analysis. The absorbance spectroscopy instrument may be any type of absorbance spectroscopy instrument that is able to take absorbance spectrum in visible radiation region, i.e., 400-600 nm.
The absorbance spectrum shown in FIG. 2A is taken by a UV-Vis Spectroscopy instrument from Thermo Scientific Co in a test range of about 400-650 nm. The fluorescence spectrum shown in FIG. 2B is taken by a fluorescence spectroscopy instrument from Edinburgh Co.

Row | Em. max. [1] | Ab. max. [2] [nm] | absorbance maximum 11A [3] | absorbance maximum 11B [3] | Em. max. (estimated) [1] | Ab. max. (estimated) [2] | SMILES
1 | 580 nm | 551 | about 520 nm | about 550 nm |  |  | Cn1c(=O)cc2c3c(c(NC4CCCCC4)ccc31)C(=O)c1ccccc1-2 [formula (III), Solvent Red 149]
2 | no emission | 543 |  |  |  |  | Cc1ccc(Nc2ccc3c4c(cc(=O)n3C)-c3ccccc3C(=O)c24)cc1 [formula (II), Solvent Red 52]
3 |  |  |  |  | 575-600 nm | 540-560 nm | CCCCC(CC)CNc1ccc2c3c(cc(=O)n2CC(CC)CCCC)-c2ccccc2C(=O)c13 (centres unmarked) [formula (VI)]
4 |  |  |  |  | 575-600 nm | 540-560 nm | CNc1ccc2c3c(cc(=O)n2C)-c2ccccc2C(=O)c13 [formula (V)]
5 |  |  |  |  | 575-600 nm | 540-560 nm | CCCCC(CC)CNc1ccc2c3c(cc(=O)n2C)-c2ccccc2C(=O)c13 (centres unmarked) [formula (VII)]
6 |  |  |  |  | 575-600 nm | 540-560 nm | O=C1c2ccccc2-c2cc(=O)n(Cc3ccccc3)c3ccc(NCc4ccccc4)c1c23 [formula (X)]
7 |  |  |  |  | 575-600 nm | 540-560 nm | O=C1c2ccccc2-c2cc(=O)n(C3CCCCC3)c3ccc(NC4CCCCC4)c1c23 [formula (VIII)]
8 |  |  |  |  | 575-600 nm | 540-560 nm | CCCCCCCCCCCNc1ccc2c3c(cc(=O)n2C)-c2ccccc2C(=O)c13 [formula (IX)]
9 |  |  |  |  | 575-600 nm | 540-560 nm | Cn1c(=O)cc2c3c(c(NCc4ccccc4)ccc31)C(=O)c1ccccc1-2 [formula (IV), Solvent Red 150]

— patent publication US20240199964A1, “COMPOUNDS FOR MARKING LIQUIDS” (KUANTAG NANOTEKNOLOJILER GELISTIRME VE URETIM A.S., priority 2022, published 2024)
